Values belong to the compound of their own block, whether it stands above or below them.
Legend:
[1] = system: anesthetized male Sprague–Dawley rats; assay: Renal excretory function: urine flow rate, urinary Na+, K+, Cl− excretion; type: in vivo, rat; conditions: anesthetized male SD rats, Figure 5
Method: (§1) After one week of acclimation, SD rats (10–12 weeks old) were randomly divided into study groups. Rats were anesthetized with thiobutabarbital sodium (Inactin, 110 mg/kg, IP; Sigma-Aldrich, St. Louis, Missouri). Core temperature was maintained between 36 and 37°C throughout the study using a heating pad (Fine Science Tools Inc., Foster City, California). Polyethylene PE-50 tubing was inserted into the left femoral artery to permit intermittent blood sampling, and was also connected to a pressure transducer (NL108T2, Harvard Apparatus, Holliston, Massachusetts) for the measurement of blood pressure (BP) and heart rate (HR). […] Urine volumes were measured and urine was analyzed for electrolytes (Na^+, K^+, and Cl^−) and pH at multiple time points during the study. GFR and RBF were determined by inulin and PAH renal clearance at baseline and the end of the study. […]
(§2) One group of animals received four successive infusions of saline. […] BP, HR, urinary Na^+, K^+, and Cl^− excretion were measured at baseline and at the end of each 20 minute infusion period. GFR and RBF were assessed at baseline and at the end of the last infusion period in each animal (Figure 1).
(§3) Animals were randomized into 8 experimental groups (n = 6 - 8) (Table 1): Group 1. […] Parameters measured are the same as described in Protocol 1 (Figure 2). […]

[2] = system: anesthetized male Sprague–Dawley rats; assay: Glomerular filtration rate by inulin clearance; type: in vivo, rat; conditions: anesthetized male SD rats
Method: as §1, §2, §3

[3] = system: anesthetized male Sprague–Dawley rats; assay: Renal blood flow by para-aminohippurate clearance; type: in vivo, rat; conditions: anesthetized male SD rats
Method: as §1, §2, §3

[4] = Plasma concentration of active GLP-1 (ELISA); type: in vivo, rat; conditions: anesthetized male SD rats
Method: as §1, with “(HR). The signal from the pressure transducer was transmitted to a Ponemah data acquisition system (Data Science International, St. Paul, Minnesota). The left femoral vein was cannulated with PE-50 tubing for solution administration and compound delivery, respectively. The bladder was catheterized with PE-100 tubing to allow timed collections of urine.” for “(HR).”
Na^+, K^+, and Cl^− concentrations in plasma and urine were measured by a Roche Modular Chemistry System (Roche Diagnostics, Indianapolis, Indiana). Hematocrit was determined using a HESKA I-STAT Hematology Analyzer (HESKA, Fribourg, Switzerland). Urine pH was measured by a pH meter (Fisher Scientific, Pittsburgh, Pennsylvania). Inulin and PAH concentrations in plasma and urine were determined by colorimetric assays. […] Plasma DPP4 activity was measured using a continuous fluorometric assay with the substrate Gly-Pro-AMC, which is cleaved by DPP4 to release the fluorescent AMC leaving group.

[5] = system: anesthetized male Sprague–Dawley rats; assay: Blood pressure recorded from indwelling femoral artery catheter; type: in vivo, rat; conditions: anesthetized male SD rats, mean ± SE, n = 6-8
Method: as §1, §2
(§4) Animals were randomized into 8 experimental groups (n = 6 - 8) (Table 1): Group 1. […] Parameters measured are the same as described in Protocol 1 (Figure 2).

[6] = system: anesthetized male Sprague–Dawley rats; assay: Heart rate recorded from indwelling femoral artery catheter; type: in vivo, rat; conditions: anesthetized male SD rats, mean ± SE, n = 6-8
Method: as §1, §2, §4

[7] = system: anesthetized male Sprague–Dawley rats; assay: Urine pH; type: in vivo, rat; conditions: anesthetized male SD rats, mean ± SE, n = 6-8
Method: as §1
(§5) Na^+, K^+, and Cl^− concentrations in plasma and urine were measured by a Roche Modular Chemistry System (Roche Diagnostics, Indianapolis, Indiana). Hematocrit was determined using a HESKA I-STAT Hematology Analyzer (HESKA, Fribourg, Switzerland). Urine pH was measured by a pH meter (Fisher Scientific, Pittsburgh, Pennsylvania). Inulin and PAH concentrations in plasma and urine were determined by colorimetric assays. […]

[8] = system: anesthetized male Sprague–Dawley rats; assay: Plasma K+ concentration; type: in vivo, rat; conditions: anesthetized male SD rats, mean ± SE, n = 6-8
Method: as §1, §5

[9] = system: anesthetized male Sprague–Dawley rats; assay: Hematocrit; type: in vivo, rat; conditions: anesthetized male SD rats, mean ± SE, n = 6-8
Method: as §1, §5

[10] = system: anesthetized male Sprague–Dawley rats; assay: Plasma glucose; type: in vivo, rat; conditions: anesthetized male SD rats, mean ± SE, n = 6-8
Method: After one week of acclimation, SD rats (10–12 weeks old) were randomly divided into study groups. Rats were anesthetized with thiobutabarbital sodium (Inactin, 110 mg/kg, IP; Sigma-Aldrich, St. Louis, Missouri). Core temperature was maintained between 36 and 37°C throughout the study using a heating pad (Fine Science Tools Inc., Foster City, California). Polyethylene PE-50 tubing was inserted into the left femoral artery to permit intermittent blood sampling, and was also connected to a pressure transducer (NL108T2, Harvard Apparatus, Holliston, Massachusetts) for the measurement of blood pressure (BP) and heart rate (HR). The signal from the pressure transducer was transmitted to a Ponemah data acquisition system (Data Science International, St. Paul, Minnesota). The left femoral vein was cannulated with PE-50 tubing for solution administration and compound delivery, respectively. […] In addition, 0.9% saline was infused via a Y shape adapter to the left femoral vein at a rate of 0.1 ml/100 g/h. Rats were allowed to stabilize for ~1 hour before initiation of the study. The experimental protocol was initiated with a 20-minute baseline urine collection, followed by administration of either vehicle or test compound at a rate of 0.1 ml/100 g/h for 60-minutes.

[11] = system: anesthetized male Sprague–Dawley rats; assay: Plasma insulin; type: in vivo, rat; conditions: anesthetized male SD rats, mean ± SE, n = 6-8
Method: as §1, with “(HR). The signal from the pressure transducer was transmitted to a Ponemah data acquisition system (Data Science International, St. Paul, Minnesota). The left femoral vein was cannulated with PE-50 tubing for solution administration and compound delivery, respectively. The bladder was catheterized with PE-100 tubing to allow timed collections of urine.” for “(HR).”

DPP4 = target: T1, DPP4 (Rattus norvegicus, UniProt P14740); assay: Plasma DPP4 activity, continuous fluorometric assay with Gly-Pro-AMC; type: in vivo; conditions: anesthetized male SD rats, MK-0626 1 mg/kg iv bolus, substrate Gly-Pro-AMC
T1 construct: from tissue; host or cells: plasma of Sprague-Dawley rats
T1 sequence (P14740 37-767 limits assumed): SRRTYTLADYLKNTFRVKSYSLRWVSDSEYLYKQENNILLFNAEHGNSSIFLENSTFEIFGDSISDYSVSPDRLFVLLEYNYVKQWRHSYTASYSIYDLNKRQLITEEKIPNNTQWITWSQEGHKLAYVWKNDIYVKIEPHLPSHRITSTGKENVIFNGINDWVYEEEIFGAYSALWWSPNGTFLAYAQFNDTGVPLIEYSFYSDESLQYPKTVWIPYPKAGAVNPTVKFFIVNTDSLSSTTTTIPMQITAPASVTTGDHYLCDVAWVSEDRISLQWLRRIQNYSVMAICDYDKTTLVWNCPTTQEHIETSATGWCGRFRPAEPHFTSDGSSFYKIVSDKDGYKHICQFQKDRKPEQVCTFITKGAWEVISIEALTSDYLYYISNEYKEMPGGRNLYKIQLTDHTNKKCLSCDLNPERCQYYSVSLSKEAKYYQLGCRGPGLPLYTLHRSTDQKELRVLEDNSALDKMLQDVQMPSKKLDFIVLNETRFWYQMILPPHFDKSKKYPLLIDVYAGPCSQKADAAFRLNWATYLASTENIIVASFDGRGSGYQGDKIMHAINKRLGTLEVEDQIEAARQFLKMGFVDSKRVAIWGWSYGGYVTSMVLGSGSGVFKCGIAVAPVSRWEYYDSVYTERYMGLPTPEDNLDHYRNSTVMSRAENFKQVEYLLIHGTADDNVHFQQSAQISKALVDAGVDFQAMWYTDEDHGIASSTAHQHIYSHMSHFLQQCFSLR
Method: as §1, §5

[12] = group MK-0626 + Saline, baseline = 20 min period prior to IV administration
[13] = MK-0626 1 mg/kg iv bolus followed by saline iv infusion
[14] = MK-0626 1 mg/kg iv bolus followed by saline iv infusion, end of study

Structure (SMILES): CC[C@H](C)[C@H](NC(=O)[C@H](Cc1ccccc1)NC(=O)[C@H](CCC(=O)O)NC(=O)[C@H](CCCCN)NC(=O)[C@H](C)NC(=O)[C@H](C)NC(=O)[C@H](CCC(N)=O)NC(=O)CNC(=O)[C@H](CCC(=O)O)NC(=O)[C@H](CC(C)C)NC(=O)[C@H](Cc1ccc(O)cc1)NC(=O)[C@H](CO)NC(=O)[C@H](CO)NC(=O)[C@@H](NC(=O)[C@H](CC(=O)O)NC(=O)[C@H](CO)NC(=O)[C@@H](NC(=O)[C@H](Cc1ccccc1)NC(=O)[C@@H](NC(=O)CNC(=O)[C@H](CCC(=O)O)NC(=O)[C@H](C)NC(=O)[C@@H](N)Cc1c[nH]cn1)[C@@H](C)O)[C@@H](C)O)C(C)C)C(=O)N[C@@H](C)C(=O)N[C@@H](Cc1c[nH]c2ccccc12)C(=O)N[C@@H](CC(C)C)C(=O)N[C@H](C(=O)N[C@@H](CCCCN)C(=O)NCC(=O)N[C@@H](CCCNC(=N)N)C(N)=O)C(C)C [GLP-1, Glucagon-like peptide 1, reference compound]
effect on diuresis, natriuresis, chloruresis and kaliuresis ([1]; saline bolus followed by GLP-1 iv infusion alone (2.4, 4.8, 9.6 pmol/kg/min)): modest, albeit significant increase
effect on GFR ([2]; GLP-1 iv infusion alone, no dose-dependence, Figure 6a): modest increase
effect on RBF ([3]; GLP-1 alone, only at the highest dose 9.6 pmol/kg/min, Figure 6c): significant effect
effect on plasma active GLP-1 levels ([4]; exogenous GLP-1 infusion 2.4, 4.8 and 9.6 pmol/kg/min, further enhanced after MK-0626, Figure 4): step-wise increase

Plasma DPP4 activity, inhibition (DPP4): greater than 90%
Structure (SMILES): CN(C)C(=O)[C@@H](c1ccc(-c2ccc3ncnn3c2)cc1)[C@H](N)C(=O)N1CCC(F)(F)C1.Cl [MK-0626]
BP, baseline [5, 12]: 123.5 ± 3.7 mmHg
BP, treatment [5, 13]: 121.9 ± 3.9 mmHg
HR, baseline [6, 12]: 381.2 ± 10.0 bpm
HR, treatment [6, 13]: 380.9 ± 10.3 bpm
effect on diuresis or natriuresis ([1]; MK-0626 1 mg/kg iv bolus alone): no significant effect
urine pH, baseline [7, 12]: 6.07 ± 0.17
urine pH, treatment [7, 13]: 6.25 ± 0.20
effect on GFR ([2]; all animals that received MK-0626 1 mg/kg, not further enhanced by increasing doses of GLP-1, Figure 6b): increased
effect on RBF ([3]; MK-0626 1 mg/kg alone, in the absence of GLP-1 administration): increased
plasma K+, baseline [8, 12]: 4.4 ± 0.14 mmol/L
plasma K+, treatment [8, 14]: 4.2 ± 0.10 mmol/L
Hematocrit, baseline [9, 12]: 40.0 ± 0.8%
Hematocrit, treatment [9, 14]: 38.2 ± 0.6%
Glucose, baseline [10, 12]: 134.9 ± 6.0 mg/dL
Glucose, treatment [10, 14]: 135.8 ± 7.3 mg/dL
Insulin, baseline [11, 12]: 2.5 ± 0.2 ng/mL
Insulin, treatment [11, 14]: 2.7 ± 0.1 ng/mL
circulating GLP-1 level, baseline before MK-0626 alone ([4]; group MK-0626 alone, baseline, ELISA, active GLP-1): 3.4 pmpol/L
circulating GLP-1 level after MK-0626 alone ([4]; MK-0626 1 mg/kg iv bolus alone (no exogenous GLP-1), ELISA, active GLP-1): 5.5 pmol/L
